The NIST ThermoML archive (doi:10.1021/je700140j)
± gives the expanded uncertainty stated by the source.

Experiment: refractive index (Na D-line) (dimensionless); xn = mol fraction of the nth substance listed
Conditions: 100.8 kPa, Liquid, Standard Abbe refractometry

OCCc1ccccc1 [2-phenylethanol] + OCc1ccccc1
refractive index
Conditions	298.15 K	308.15 K	318.15 K
x2 = 0	1.53269 ± 0.00037	1.52852 ± 0.00037	1.52427 ± 0.00037
x2 = 0.05	1.53322 ± 0.00037	1.52911 ± 0.00037	1.52495 ± 0.00037
x2 = 0.1	1.53367 ± 0.00036	1.52961 ± 0.00036	1.52549 ± 0.00036
x2 = 0.15	1.5341 ± 0.00036	1.53006 ± 0.00036	1.52594 ± 0.00036
x2 = 0.2	1.53454 ± 0.00036	1.5305 ± 0.00036	1.52636 ± 0.00036
x2 = 0.25	1.53495 ± 0.00036	1.53089 ± 0.00036	1.52674 ± 0.00036
x2 = 0.3	1.53532 ± 0.00035	1.53125 ± 0.00035	1.5271 ± 0.00035
x2 = 0.35	1.53568 ± 0.00035	1.53159 ± 0.00035	1.52745 ± 0.00035
x2 = 0.4	1.53601 ± 0.00035	1.53193 ± 0.00035	1.52777 ± 0.00035
x2 = 0.45	1.53633 ± 0.00035	1.53225 ± 0.00035	1.52809 ± 0.00035
x2 = 0.5	1.53663 ± 0.00034	1.53255 ± 0.00034	1.52839 ± 0.00034
x2 = 0.55	1.53689 ± 0.00034	1.53281 ± 0.00034	1.52864 ± 0.00034
x2 = 0.6	1.53712 ± 0.00034	1.53304 ± 0.00034	1.52888 ± 0.00034
x2 = 0.65	1.53733 ± 0.00034	1.53325 ± 0.00034	1.5291 ± 0.00034
x2 = 0.7	1.53752 ± 0.00034	1.53344 ± 0.00034	1.52929 ± 0.00034
x2 = 0.75	1.53772 ± 0.00033	1.53362 ± 0.00033	1.52947 ± 0.00033
x2 = 0.8	1.53789 ± 0.00033	1.53377 ± 0.00033	1.52961 ± 0.00033
x2 = 0.85	1.53804 ± 0.00033	1.53391 ± 0.00033	1.52973 ± 0.00033
x2 = 0.9	1.53819 ± 0.00033	1.53403 ± 0.00033	1.52984 ± 0.00033
x2 = 0.95	1.53833 ± 0.00033	1.53414 ± 0.00033	1.52993 ± 0.00033

OCCc1ccccc1 [2-phenylethanol] + CC(C)O
refractive index
Conditions	298.15 K	308.15 K	318.15 K
x2 = 0	1.53269 ± 0.00037	1.52852 ± 0.00037	1.52427 ± 0.00037
x2 = 0.05	1.52795 ± 0.00037	1.52391 ± 0.00037	1.51972 ± 0.00037
x2 = 0.1	1.523 ± 0.00036	1.51896 ± 0.00036	1.51478 ± 0.00036
x2 = 0.15	1.5178 ± 0.00036	1.51375 ± 0.00036	1.50956 ± 0.00036
x2 = 0.2	1.51235 ± 0.00036	1.50826 ± 0.00036	1.50405 ± 0.00036
x2 = 0.25	1.50661 ± 0.00036	1.50253 ± 0.00036	1.49832 ± 0.00036
x2 = 0.3	1.50063 ± 0.00036	1.49652 ± 0.00036	1.49228 ± 0.00036
x2 = 0.35	1.49437 ± 0.00035	1.49025 ± 0.00035	1.48598 ± 0.00035
x2 = 0.4	1.4878 ± 0.00035	1.48365 ± 0.00035	1.47938 ± 0.00035
x2 = 0.45	1.48091 ± 0.00035	1.47673 ± 0.00035	1.47245 ± 0.00035
x2 = 0.5	1.47367 ± 0.00035	1.4695 ± 0.00035	1.46522 ± 0.00035
x2 = 0.55	1.46611 ± 0.00035	1.46193 ± 0.00035	1.45763 ± 0.00035
x2 = 0.6	1.45816 ± 0.00035	1.45395 ± 0.00035	1.44964 ± 0.00035
x2 = 0.65	1.44975 ± 0.00034	1.44553 ± 0.00034	1.4412 ± 0.00034
x2 = 0.7	1.44087 ± 0.00034	1.43664 ± 0.00034	1.4323 ± 0.00034
x2 = 0.75	1.43149 ± 0.00034	1.42725 ± 0.00034	1.4229 ± 0.00034
x2 = 0.8	1.42156 ± 0.00033	1.41733 ± 0.00033	1.41297 ± 0.00034
x2 = 0.85	1.411 ± 0.00033	1.40678 ± 0.00033	1.40239 ± 0.00033
x2 = 0.9	1.39973 ± 0.00033	1.39547 ± 0.00033	1.39112 ± 0.00033
x2 = 0.95	1.38776 ± 0.00033	1.38342 ± 0.00033	1.37903 ± 0.00033
